Series [1] concerns sensory neuronal cultures. Type of series: cell-based, rat. How it is done:
EXAMPLE. Cell Cultures. Neuronal cultures were prepared from adult male (150-175 g) Sprague-Dawley rats (Harlan, Indianapolis, Ind.) as described in the published literature. Briefly, hippocampal cells were dissociated using papain and mechanical agitation and separated by gradient centrifugation. The pellet of cells from a discontinuous gradient of Optiprep in L-15 media was washed then resuspended in 1 mL of growth media consisting of Neurobasal Medium supplemented with 0.5 mM L-glutamine, 2% B-27 Supplement minus AO, 50 mg/mL Penicillin-Streptomycin, and 5 ng/mL of Basic Fibroblast Growth Factor (BFGF). Approximately 60,000 cells were plated onto poly-D-lysine and laminin coated plates and grown for 6-14 days in 5% CO2 at 37° C. Growth medium was changed every other day. For sensory neuronal culture, cells were dissociated using collagenase and mechanical dissociation. Approximately 30,000 DRG cells were plated into each well of 12 well culture plates or onto Lab-Tek chamber slides all precoated with poly-D-lysine and laminin. The sensory neurons were maintained in F-12 media supplemented with 10% horse serum, 2 mM glutamine, 100 μg/mL normocin, 50 μg/mL penicillin, 50 μg/mL streptomycin, 50 μM 5-fluoro-2′-deoxyuridine, 150 μM uridine, and 30 ng/mL NGF in 3% CO2 at 37° C. Growth medium was changed every other day and the cells were used after 11-13 days of culture.
EXAMPLE. Assay Methods. Sensory neuronal cultures grown on Lab-Tek microscope chamber slides were processed for immunofluorescence as previously published using a peripherin antibody (1:500) and HA antibody (1:500)[28]. Images were collected in red (peripherin), green (HA), and bright-field modes. A Zeiss LSM offline browser (R4.0: Carl Zeiss Inc.; Thornwood, N.Y.) was used to determine co-localization of peripherin and HA. For trypan blue exculsion, equal volume of 0.4% (w/v) Trypan blue to cell suspension were combined, mixed and scored under phase contrast microscope. […]
EXAMPLE. […] The mean % of cells surviving 24 h after exposure to IR as measured by trypan blue exclusion was evaluated. […]

Series [2] relates to DRG cells. The series can be described thus: CGRP release from DRG cells following cisplatin treatment. The series is classed as cell-based, rat. The settings on record: E3330 20 μM pretreatment 3 days, then cisplatin 10 μM 24 hours. The method, then: EXAMPLE. CGRP. Release studies were performed on cells. Briefly, neuronal cultures were washed once with HEPES buffer consisting of 25 HEPES, 135 NaCl, 3.5 KCl, 2.5 CaCl2, 1 MgCl2, 3.3 d-glucose (each in mmol/L), and 0.1% bovine serum albumin (pH 7.4), maintained at 37° C., and then incubated for successive 10-min intervals with 0.4 mL of the same buffer in the absence or presence of drugs. Basal or resting release was determined by exposing the cells to HEPES buffer alone, whereas stimulated release was determined by exposing the cultures to 30 nmol/L capsaicin. Cells then were reexposed to HEPES buffer without drugs for one or two 10-min incubations to reestablish resting release. During incubations, the cells were maintained in at 37° C. After each incubation, the buffer was removed to measure the amount of CGRP using RIAs. […] Total content is determined by adding the total amount released in all incubations to the amount remaining in the cells. The release data is calculated as a percentage of the total peptide content in the cells. Because CGRP was measured by RIA, results are expressed as CGRP-like immunoreactivity (iCGRP). […]
EXAMPLE. […] Basal levels of CGRP without induction and cumulative total basal are both monitored, indicating correct functioning of the assay.

Results on 1 compound are retold here after patent US11160770B2, “Compounds, compositions and methods for treating oxidative DNA damage disorders” (Indiana University Research and Technology Corporation, priority 2011, dated 2021).

In the case of `CCCCCCCCC/C(=C\C1=C(C)C(=O)C(OC)=C(OC)C1=O)C(=O)O` [Example 28], the “cell viability (effect on IR-induced cell death)” value in series [1] (20 μM E3330, 3 days prior to and throughout 3 days of radiation (10 Gy/day), 24 h after last dose) was “effectively blocks IR's effects”. For the same compound, the cell viability in series [1] (male, Sprague-Dawley, rat, 20 μM) amounted to 51±3%. The “cell viability (% cells surviving, trypan blue exclusion)” value in series [1] (male, Sprague-Dawley, rat, 6 days, 10 μM) amounted to 81±3%. The “total content CGRP” value in series [2] (FIG. 3(B)) is given as “no statistical significance difference”. Moreover, in series [2] (capsaicin 30 nM), the “capsaicin-induced CGRP release from DRG cells after cisplatin” value was “recovery of CGRP release”.

In general, cell viability refers to a per cent measure of how many cells are alive, often set against a control. The low end stands for more harm to the cells, the high end for less harm to the cells.
